Measurements: ChEMBL document CHEMBL4145551, “Mitochondria-targeting indolizino[3,2-c]quinolines as novel class of photosensitizers for photodynamic anticancer activity” (Eur J Med Chem, 2018)
Calls of active or inactive are those of the source.

Legend:
[1] = tested on: HeLa; assay: Photocytotoxicity against human HeLa cells assessed as plasma membrane blebbing at 5 uM preincubated for 1 hr followed by blue LED light irradiation for 10 to 30 mins and measured after 2.5 hrs by holotomographic method; format: functional, cell-based
[2] = tested on: DNA; assay: Binding affinity to Escherichia coli pBR322 DNA assessed as increase in test compound fluorescence after 30 mins under blue LED light irradiation; format: nucleic-acid assay
[3] = tested on: HeLa; assay: Photocytotoxicity against human HeLa cells assessed as cell rounding at 20 uM preincubated for 1 hr followed by blue LED light irradiation for 10 mins and measured after 2.5 hrs by holotomographic method; format: functional, cell-based
[4] = tested on: HeLa; assay: Photocytotoxicity against human HeLa cells assessed as reduction in cell viability at 2 uM preincubated for 1 hr followed blue LED light irradiation for 5 mins and measured after 24 hrs in presence of singlet oxygen scavenger histidine by MTT assay; format: functional, cell-based
[5] = tested on: DNA; assay: Binding affinity to Escherichia coli pBR322 DNA assessed as increase in test compound fluorescence up to 10 uM after 30 mins under blue LED light irradiation relative to control; format: nucleic-acid assay
[6] = tested on: HeLa; assay: Photocytotoxicity against human HeLa cells assessed as plasma membrane blebbing at 0.5 uM preincubated for 1 hr followed by blue LED light irradiation for 5 mins and measured after 13 hrs by propidium iodide staining based fluorescence microscopic method; format: functional, cell-based
[7] = tested on: MCF7; assay: Photocytotoxicity against human MCF7 cells assessed as cytoplasmic shrinkage at 10 uM preincubated for 1 hr followed by 488 nanometer laser light irradiation and measured after 8 to 10 mins by confocal microscopic method; format: functional, cell-based
[8] = Dark toxicity in human HeLa cells assessed as reduction in cell viability up to 10 uM measured after 24 hrs by MTT assay; format: cell-based
[9] = tested on: HeLa; assay: Photocytotoxicity against human HeLa cells assessed as membrane protrusion at 20 uM preincubated for 1 hr followed by blue LED light irradiation for 10 mins and measured after 2.5 hrs by holotomographic method; format: functional, cell-based
[10] = tested on: NIH3T3; assay: Cytotoxicity against mouse NIH/3T3 cells assessed as cytoplasmic shrinkage at 10 uM preincubated for 1 hr followed by 488 nanometer laser light irradiation and measured after 16 mins by confocal microscopic method; format: cell-based; conditions: nih3t3, 16 min
[11] = tested on: HeLa; assay: Photocytotoxicity against human HeLa cells assessed as cell rounding at 5 uM preincubated for 1 hr followed by blue LED light irradiation for 10 to 30 mins and measured after 2.5 hrs by holotomographic method; format: functional, cell-based
[12] = tested on: MCF7; assay: Photocytotoxicity against human MCF7 cells assessed as reduction in cell viability preincubated for 1 hr followed blue LED light irradiation for 5 mins and measured after 24 hrs by MTT assay; format: functional, cell-based
[13] = tested on: HeLa; assay: Photocytotoxicity against human HeLa cells assessed as cell shrinkage at 5 uM preincubated for 1 hr followed by blue LED light irradiation for 10 to 30 mins and measured after 2.5 hrs by holotomographic method; format: functional, cell-based
[14] = tested on: HeLa; assay: Photocytotoxicity against human HeLa cells assessed as induction of mitochondrial damage by measuring mitochondrial swelling at 10 uM preincubated for 1 hr followed by 488 nanometer laser light irradiation up to 6 mins by mitotracker red staining based confocal laser scanning microscopic method; format: functional, cell-based
[15] = tested on: HeLa; assay: Photocytotoxicity against human HeLa cells assessed as cellular shrinkage up to 10 uM preincubated for 1 hr followed by blue LED light irradiation for 5 mins and measured after 13 hrs by Hoechst 33258 staining based fluorescence microscopic method; format: functional, cell-based
[16] = Dark toxicity in human MCF7 cells assessed as reduction in cell viability up to 10 uM measured after 24 hrs by MTT assay; format: cell-based; conditions: mcf7, 24 h

Cc1cccn2c1cc1c3ccccc3nc(-c3ccco3)c12
inactive: Activity [4]
active: Activity [1] | Activity [2] Dose-dependent effect | Activity [3] | Activity [6] | Activity [7] | Activity [9] | Activity [11] | Activity [12] Dose-dependent effect | Activity [13] | Activity [14] | Activity [15]
Non-Toxic: Activity [8] | Activity [10] | Activity [16]
< 4: fold change (FC) [5]
2.39 µM: IC50 ([12]; MCF7, light or radiation study)
